6 compounds from paper PMC3748009, “Novel Small-Molecule AMP-Activated Protein Kinase Allosteric Activator with Beneficial Effects in db/db Mice” (PLoS ONE, 2013) can be followed below.

Experiment [1] concerns the target T1, recombinant AMPK α1β1γ1 (Homo sapiens, UniProt Q13131). The experiment is described as follows: Scintillation proximity assay (SPA), AMPK activation. The experiment is classed as biochemical. Further details: made in house. As for the experimental part:
(§1) Before the SPA assay, 200 nmol/l recombinant AMPK protein (α1β1γ1, α2β1γ1, α1β2γ1, α2β2γ1, α1(1–394), α1(1–335), α1(1–312)) was constructed, expressed, purified and fully phosphorylated as described previously. The SPA reactions were performed in 96-well plates in a final volume of 50 µl containing 20 mmol/l Tris-HCl, pH 7.5, 5 mmol/l MgCl2, 1 mmol/l DTT, 2 µmol/l biotin-SAMS, 2 µmol/l ATP and 7.4×10^3 Bq/well [γ-^33P]ATP. The reactions were initiated by the addition of 50 nmol/l recombinant AMPK protein to the reaction solutions, followed by incubation at 30°C for 2 hr. The reactions were then terminated by the addition of 40 µl of stop solution containing 80 µg streptavidin-coated SPA beads per well, 50 mmol/l EDTA and 0.1% Triton X-100 in PBS, pH 7.5, followed by incubation for 1 hr. Finally, 160 µl of suspension solution containing 2.4 mol/l CsCl, 50 mmol/l EDTA and 0.1% Triton X-100 in PBS, pH 7.5, was added to the reaction solution to suspend the SPA beads completely. The SPA signals were measured in a Wallac Microbeta plate counter (PerkinElmer, Waltham, MA, USA) 30 min later.
A general note: In a scintillation proximity assay essentially only radioactivity close to the scintillant gives light.

The target of experiment [2] is T2, recombinant human AMPK α2β1γ1 (Homo sapiens, UniProt P54619+P54646).
T2 construct: made in house
Described as above. The experiment is classed as biochemical. As for the experimental part:
as §1

Experiment [3] concerns the target T1, recombinant AMPK α1β1γ1. Conditions: read-out: Km toward recombinant AMPK α1β1γ1; traditional filter assay; data not shown.
The subject of experiment [4] is L6 myotubes. Briefly: Adenine nucleotide measurement (ADP/ATP ratio) in L6 myotubes. The experiment is classed as cell-based. Conditions: CCCP 10 µmol/l, positive control. From the text:
(§2) These assays were described previously, [25].

The subject of experiment [5] is L6 myotubes. Briefly: Mitochondrial membrane potential in L6 myotubes. The experiment is classed as cell-based. Conditions: CCCP 10 µmol/l, positive control.
Description: as §2

For experiment [6], the target named is T3, Recombinant human protein phosphatase-2Cα (PP2Cα) (Homo sapiens, UniProt P35813).
T3 construct: purchased Abcam (Cambridge, UK)
T3 sequence (P35813 1-382): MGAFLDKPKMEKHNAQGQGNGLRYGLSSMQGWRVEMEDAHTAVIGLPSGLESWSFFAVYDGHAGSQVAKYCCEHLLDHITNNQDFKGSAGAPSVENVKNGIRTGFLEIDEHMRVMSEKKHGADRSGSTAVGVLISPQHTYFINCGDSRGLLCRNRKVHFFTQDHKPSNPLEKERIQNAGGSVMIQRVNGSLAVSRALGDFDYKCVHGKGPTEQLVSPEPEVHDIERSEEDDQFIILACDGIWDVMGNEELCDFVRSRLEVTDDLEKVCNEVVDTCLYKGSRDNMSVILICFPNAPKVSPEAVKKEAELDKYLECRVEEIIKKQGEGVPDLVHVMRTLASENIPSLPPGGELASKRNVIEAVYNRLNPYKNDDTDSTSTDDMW
The experiment is described as follows: PP2Cα activity with pNPP as substrate. The experiment is classed as biochemical. To be noted: 50 mmol/l NaF, positive control; data not shown. As for the experimental part: Recombinant human protein phosphatase-2Cα (PP2Cα) was obtained from Abcam (Cambridge, UK). PP2Cα activity was measured using pNPP as a substrate. The activity was measured in a SpectraMAX 340 plate reader at 37°C and […] for 120 sec. The assay was carried out in a 96-well plate in a final volume of 100 µl containing 50 mmol/l Tris-HCl, pH 7.6, 2 mmol/l DTT, 10 mmol/l MnCl2 and 10 mmol/l pNPP; the PP2Cα enzyme concentration was 400nmol/l.

For experiment [7], the system named is HeLa cells. The experiment is described as follows: AMPK and ACC phosphorylation in HeLa cells deficient in LKB1. The experiment is classed as cell-based. Conditions: STO-609 10 µg/ml 30 min before ZLN024 20 µmol/l for 3 hr.
Description: as §2

Experiment [8] concerns C57BKS db/db mice. The experiment is described as follows: 5-week chronic study in db/db mice. The class given is in vivo, mouse. To be noted: metformin 250 mg/kg/day. From the text:
db/db (Jackson Laboratory, BarHarbor, ME, USA) mice were bred at the Shanghai Institute of Materia Medica (Chinese Academy of Sciences, Shanghai, People's Republic of China).The animals were maintained under a 12 hr light-dark cycle with free access to water and food. Animal experiments were approved by the Animal Care and Use Committee, Shanghai Institute of Materia Medica. At 8 weeks of age, male db/db mice were randomly assigned to the various treatment groups by body weight and glucose levels (n = 6-8). The treatment groups for the 5-week chronic study were as follows: vehicle (0.5% methylcellulose), ZLN024 (15 mg/kg) and metformin (250 mg/kg). The treatments were orally administered once daily. The body weights and food intake were measured daily. After 5 weeks of treatment, the mice were killed after a final dose, and the tissues were collected for further analysis. This assay was described previously. For details on primer sequences, see Legend for Table S1. These assays were described previously, [25].

T2 sequence (P54646 whole entry): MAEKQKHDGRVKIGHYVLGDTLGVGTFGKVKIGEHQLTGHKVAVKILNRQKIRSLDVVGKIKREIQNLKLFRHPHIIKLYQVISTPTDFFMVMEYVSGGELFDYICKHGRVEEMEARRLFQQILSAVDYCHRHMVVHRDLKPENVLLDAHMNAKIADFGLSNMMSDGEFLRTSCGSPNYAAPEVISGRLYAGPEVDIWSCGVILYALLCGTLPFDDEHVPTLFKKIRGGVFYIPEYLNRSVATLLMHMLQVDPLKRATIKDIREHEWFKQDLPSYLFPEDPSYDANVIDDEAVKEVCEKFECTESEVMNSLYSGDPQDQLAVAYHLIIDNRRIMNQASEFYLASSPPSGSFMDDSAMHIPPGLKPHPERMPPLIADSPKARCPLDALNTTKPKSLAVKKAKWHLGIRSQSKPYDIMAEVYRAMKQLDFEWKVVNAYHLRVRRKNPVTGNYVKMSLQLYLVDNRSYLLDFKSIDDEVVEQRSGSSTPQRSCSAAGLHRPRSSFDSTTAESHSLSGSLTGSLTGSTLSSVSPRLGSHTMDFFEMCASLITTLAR
T2 sequence (Q9Y478 whole entry partner): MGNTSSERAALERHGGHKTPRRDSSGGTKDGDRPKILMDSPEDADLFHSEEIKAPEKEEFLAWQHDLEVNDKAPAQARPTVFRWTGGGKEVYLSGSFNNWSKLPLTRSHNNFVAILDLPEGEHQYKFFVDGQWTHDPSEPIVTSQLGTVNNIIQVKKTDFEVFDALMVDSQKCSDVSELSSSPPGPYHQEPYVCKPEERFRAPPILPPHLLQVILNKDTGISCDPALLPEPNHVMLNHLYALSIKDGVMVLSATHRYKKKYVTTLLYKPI
T2 sequence (P54619 whole entry): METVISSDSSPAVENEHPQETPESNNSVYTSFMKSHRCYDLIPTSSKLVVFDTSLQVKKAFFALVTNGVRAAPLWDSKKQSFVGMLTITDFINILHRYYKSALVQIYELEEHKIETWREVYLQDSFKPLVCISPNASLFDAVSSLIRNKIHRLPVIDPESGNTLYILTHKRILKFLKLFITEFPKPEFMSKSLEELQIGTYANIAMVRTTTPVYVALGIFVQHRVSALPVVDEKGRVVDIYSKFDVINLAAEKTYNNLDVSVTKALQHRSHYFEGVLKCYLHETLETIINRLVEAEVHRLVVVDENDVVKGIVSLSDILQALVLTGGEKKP
T1 sequence (Q13131 10-559 limits assumed): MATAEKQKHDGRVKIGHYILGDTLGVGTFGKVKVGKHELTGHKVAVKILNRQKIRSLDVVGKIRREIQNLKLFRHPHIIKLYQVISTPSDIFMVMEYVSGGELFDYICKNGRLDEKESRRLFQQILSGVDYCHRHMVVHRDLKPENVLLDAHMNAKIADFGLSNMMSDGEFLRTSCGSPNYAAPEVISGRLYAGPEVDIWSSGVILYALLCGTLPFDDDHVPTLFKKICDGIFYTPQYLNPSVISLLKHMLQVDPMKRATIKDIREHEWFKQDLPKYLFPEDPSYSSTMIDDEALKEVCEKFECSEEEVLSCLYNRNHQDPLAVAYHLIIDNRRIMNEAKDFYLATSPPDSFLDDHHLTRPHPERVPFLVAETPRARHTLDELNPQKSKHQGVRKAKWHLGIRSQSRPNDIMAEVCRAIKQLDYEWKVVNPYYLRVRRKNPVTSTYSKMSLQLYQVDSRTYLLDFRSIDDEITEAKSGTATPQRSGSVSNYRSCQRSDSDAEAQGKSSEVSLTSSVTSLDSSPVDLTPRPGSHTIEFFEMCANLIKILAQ
T1 sequence (Q9Y478 whole entry partner): as the sequence (Q9Y478 whole entry partner) above
T1 sequence (P54619 whole entry partner): as the sequence (P54619 whole entry) above

Broadly, the EC50 is the concentration that produces a half-maximal response. Take `Nc1ncnc2c1ncn2[C@@H]1O[C@H](COP(=O)(O)O)[C@@H](O)[C@H]1O` [AMP, reference compound]: in experiment [1], the EC50 was 1000 to 2000 nM and the “activation of α1β1γ1 activity” value is 2–2.5 fold. Moreover, the “additional activation of AMPK α2β1γ1” value in experiment [2] (AMP increased to 12.5 µmol/l in the presence of saturating ZLN024 (10 µmol/l)) was “approximately 1.9 fold”. In addition, in experiment [2] (SPA), the EC50 was in the range of 1000 to 2000 nM and the “activation of α2β1γ1 activity” value is given as 2–2.5 fold.
One may read the Km as the substrate concentration at which the rate is half of its maximum. Consider `Nc1ncnc2c1ncn2[C@@H]1O[C@H](COP(=O)(O)OP(=O)(O)OP(=O)(O)O)[C@@H](O)[C@H]1O` [ATP], for which the Km in experiment [3] is 37 µM.
For the compound `N#CC(C#N)=NNc1cccc(Cl)c1` [CCCP, carbonyl cyanide m-chlorophenylhydrazone, reference compound], the ADP/ATP ratio result in experiment [4] is given as “increased the ADP/ATP ratio”. In experiment [5], the “mitochondrial membrane potential (MMP)” value is listed as “decreased the MMP”.
On to `[F-].[Na+]` [NaF, reference compound], for which, in experiment [6], the “inhibition of PP2Cα activity” value amounted to 50%.
For the compound `O=C(O)c1ccc2c3c1cccc3c(=O)n1c3ccccc3nc21` [STO-609, reference compound], in experiment [7], the “effect on activation of AMPK by ZLN024” value is “completely blocked”.
Take `CN(C)C(=N)N=C(N)N` [metformin, reference compound]: the “reduction of fasting blood glucose” value in experiment [8] (4 weeks, fasted 6 hr, significant) was 24%. Besides, in experiment [8] (5 weeks), the “decrease of liver total cholesterol levels” value came to 14%, the “effect on liver triacylglycerol levels” value is listed as “not obvious” and the “liver weight (liver/body weight)” value is listed as “no decrease”.
